Target: T1, GPR158 (Homo sapiens, UniProt Q5T848)
T1 sequence (Q5T848 24-1215): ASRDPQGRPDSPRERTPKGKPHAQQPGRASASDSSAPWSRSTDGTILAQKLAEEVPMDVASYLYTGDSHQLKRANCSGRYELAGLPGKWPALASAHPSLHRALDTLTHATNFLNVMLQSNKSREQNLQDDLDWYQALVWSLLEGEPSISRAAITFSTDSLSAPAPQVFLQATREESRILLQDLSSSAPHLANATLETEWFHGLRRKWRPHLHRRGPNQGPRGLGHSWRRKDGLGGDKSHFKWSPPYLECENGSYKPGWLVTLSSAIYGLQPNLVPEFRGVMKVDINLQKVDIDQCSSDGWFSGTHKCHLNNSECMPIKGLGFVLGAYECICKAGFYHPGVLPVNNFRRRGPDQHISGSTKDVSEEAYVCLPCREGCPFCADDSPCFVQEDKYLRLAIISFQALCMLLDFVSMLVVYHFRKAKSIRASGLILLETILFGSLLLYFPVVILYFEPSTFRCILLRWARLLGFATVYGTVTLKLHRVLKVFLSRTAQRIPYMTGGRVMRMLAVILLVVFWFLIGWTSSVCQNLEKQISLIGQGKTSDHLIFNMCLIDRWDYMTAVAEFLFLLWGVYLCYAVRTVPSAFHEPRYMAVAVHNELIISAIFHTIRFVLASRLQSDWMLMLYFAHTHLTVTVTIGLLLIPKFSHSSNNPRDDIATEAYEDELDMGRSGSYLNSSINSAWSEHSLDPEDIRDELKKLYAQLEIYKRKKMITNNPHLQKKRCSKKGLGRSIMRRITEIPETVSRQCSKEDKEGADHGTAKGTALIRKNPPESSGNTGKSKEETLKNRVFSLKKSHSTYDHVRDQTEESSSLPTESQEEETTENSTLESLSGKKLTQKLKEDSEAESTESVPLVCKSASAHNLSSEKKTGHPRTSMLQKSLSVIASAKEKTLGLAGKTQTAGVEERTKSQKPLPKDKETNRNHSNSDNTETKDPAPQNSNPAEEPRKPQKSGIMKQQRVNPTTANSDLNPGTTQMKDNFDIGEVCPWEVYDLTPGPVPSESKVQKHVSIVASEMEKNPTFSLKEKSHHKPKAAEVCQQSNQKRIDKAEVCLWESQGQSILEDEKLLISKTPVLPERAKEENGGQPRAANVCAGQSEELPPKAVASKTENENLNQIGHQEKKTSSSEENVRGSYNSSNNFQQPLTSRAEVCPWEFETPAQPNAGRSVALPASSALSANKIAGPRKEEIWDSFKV
Test: Whole cell radioligand binding assay
Set-up: expressed in transfected cells; host or cells: HEK293 (HEK293FT in the BRET methods)
Settings: HEK293 cells, across concentrations
Procedure: FIG. 7. Direct binding of glycine in whole cell radiolabeled assay a) Schematics of the radioligand binding assay. b) Quantification of ^3H-glycine binding to cells. Count Per minute (CPM) are measured and plotted. Data shown mean of 3 independent experiments error bars are s.e.m. values, n=3, *p=0.0403, ***p<0.001, ****p<0.0001 (two-way ANOVA) Columns with no fill (Control cells), columns with angled-line fill (GPR158 cells).
Next, the inventors performed radioligand binding assays examining binding of [^3H]-labeled glycine to HEK293 cells expressing GPR158 (FIG. 7A). […] The inventors have then isolated cellular membranes and conducted classical radioligand titration experiments (FIG. 9D). The inventors detected saturable [^3H]-glycine binding to membranes containing GPR158 is substantial excess over linear non-specific binding to membranes devoid of GPR158 (FIG. 9E). Scatchard analysis (FIG. 9F) estimated Kd of GPR158 for glycine to be ~3 μM. The inventors further performed binding competition experiments directly comparing the ability of glycine and taurine to displace [^3H]-labeled glycine bound to GPR158 (FIG. 8).
Whole cell binding was performed using cDNA of GPR158-venus or each GPR158-venus mutant or empty pcDNA3.1+ for ctrl cells. […] Finally radioactivity was measured using the liquid scintillation analyzer Tri-Carb 4910 TR.

binding to GPR158-expressing cells: significant binding
SMILES: NCC(=O)O [^3H-glycine, [^3H]-glycine]

Source: patent US20260376293A1, “METHODS FOR STUDYING GPR158 PHARMACOLOGY AND IDENTIFICATION OF ITS LIGANDS” (UNIVERSITY OF FLORIDA RESEARCH FOUNDATION, INCORPORATED, priority 2022, published 2026)
